Test results reported in patent US20140130191A1, “METHODS FOR TREATING IMMUNE-MEDIATED DISEASES OF THE NERVOUS SYSTEM ADMINISTERING A COMPOUND COMPRISING AGENTS THAT INHIBIT PROKINETICIN RECEPTORS ACTIVITY” (FONDAZIONE I.R.C.C.S. ISTITUTO NEUROLOGICO "CARLO BESTA", priority 2011, published 2014).

Columns and labels:
splenocytes = test: T-cell response in splenocytes of mice with relapsing-remitting EAE, restimulated in vitro with PLP139-151; assay type: cell-based
Method: With reference to FIG. 5, 8-12 week old female SJL mice in which EAE had been induced by immunization with PLP139-151 in CFA were preventively treated (day 0) with PC1 at a dose of 500 μg/kg per day, or with vehicle as described in FIG. 4. The splenocytes were obtained 35 days after immunization with PLP139-151, and were restimulated in vitro with the antigen PLP139-151 at different concentrations or with the medium.
To assay proliferation, after 48 hours of incubation with 5% Co2 at 37° C., the cultures were loaded for 18 hours with 0.5 μCi 3H-thymidine per well. To assay cytokine production, splenocytes were restimulated in vitro with the antigen PLP139-151 at different concentrations or with the medium. The concentration of Interferon-gamma (IFN-gamma), tumour necrosis factor (TNF), Interleukine-6 (IL-6), IL-17, IL-4, and IL-10 was determined in duplicate using the ELISA technique (ELISA DuoSet, Pharmingen, CA). The results are representative of two consecutive experiments that gave similar results.

[1] = test system: relapsing-remitting PLP139-151 induced EAE in SJL mice; test: Relapsing-remitting EAE in SJL mice, preventive treatment regimen; assay type: in vivo; details: for Incidence (%): PLP139-151 in CFA; for severity of the disease (in words): preventive treatment, 500 μg/kg
Excerpt: (§1) The relapsing-remitting EAE model was obtained in female SJL mice by immunization with myelin proteolipid protein fragment 139-151 (PLP139-151) in complete Freund's adjuvant (CFA) [Pedotti et al., Nat Immunol 2001]. The chronic EAE model was obtained in C57BL/6 mice as mentioned before.
(§2) We used non-peptide prokineticin receptors antagonist drugs called PC1 and PC7 (whose chemical structure is shown in FIG. 1) to chronically treat the mice starting both from the time of induction of EAE (day 0; preventive treatment) and from the onset of the first symptoms of EAE (day 10-12, approximately; therapeutic treatment).
(§3) With reference to FIG. 4, the non-peptide prokineticin receptor 1 and 2 antagonist PCI was administered intraperitoneally to 8-12 week old female SJL mice in which EAE had been induced by immunization with PLP139-151 (100 μg/mouse) in CFA. The PC1 was given at a dose of 500 μg/kg (n=10). As a control, an equal amount of saline solution was injected (vehicle) (n=10). The treatments began at the time of induction of EAE (preventive treatment), or, more specifically, 4 hours after the induction of EAE. Ten mice per group were used. The graph represents the average daily disease score±standard error of the mean (SEM). A scale of 0 to 5 was used to attribute the score, where 0 is the absence of symptoms and 5 is death (as described in Pedotti et al, Nat Immunol 2001). *p<0.05 for two-tailed unpaired Student's t test vs Control. The results are representative of three consecutive experiments that gave similar results.
as §3, with “6,” for “4,”, “PC-7” for “PCI”, “PC7” for “PC1”, “μg /kg” for “μg/kg”, “(SEM).” for “(SEM). A scale of 0 to 5 was used to attribute the score, where 0 is the absence of symptoms and 5 is death (as described in Pedotti et al, Nat Immunol 2001). *p<0.05 for two-tailed unpaired Student's t test vs Control.”

[2] = test system: chronic MOG35-55 induced EAE in C57B1/6 mice; test: Chronic EAE in C57B1/6 mice, preventive treatment regimen; assay type: in vivo
Excerpt: (§4) In the study conducted we verified the expression of PK-2 and its receptors PK-R1 and PK-R2 in the experimental model of chronic EAE, an experimental model of MS. The chronic EAE model was obtained in C57B1/6 mice by immunization with myelin oligodendrocyte glycoprotein peptide fragment 35-55 (MOG35-55) and PTX (Pertussis toxin) [Pedotti et al., PNAS 2003]. During chronic EAE, we observed an increase of mRNA expression of PK-2 by lymph node cells and purified CD4+ T cells in C57B1/6 mice during the disease. This increase of mRNA expression started before the onset of the disease and is less significant after its onset (FIG. 2). We observed also an important increase of the levels of the protein PK-2 in the serum of mice with MOG35-55 induced EAE (FIG. 3). This increase of PK-2 was accompanied by a dramatic reduction of PK-R2 expression in lymph node cells and CD4+T cells. […] Thus, the couple PK-2/PK-R1 seemed to play an important role during EAE, the experimental model of MS.
as §2
With reference to FIG. 9, the non-peptide prokineticin receptor 1 and 2 antagonist PC7 was administered intraperitoneally to 8-12 week old female C57B1/6 mice in which chronic EAE had been induced by immunization with MOG35-55 (100 μg/mouse) and PTX (400 ng/mouse). The PC-7 was given at a dose of 500 μg/kg (n=10). As a control, an equal amount of saline solution was injected (vehicle) (n=10). The treatments began at the time of induction of EAE (preventive treatment), or, more specifically, 4 hours after the induction of EAE. Ten mice per group were used. The graph represents the average daily disease score±standard error of the mean (SEM). The results are representative of three consecutive experiments that gave similar results.

DLN cells [3] = test: T-cell response in draining lymph node cells of mice with relapsing-remitting EAE, restimulated in vitro with PLP139-151; assay type: cell-based; details: restimulated with PLP139-151, vs vehicle
Method: With reference to FIG. 8, 8-12 week old female SJL mice in which EAE had been induced by immunization with PLP139-151 in CFA were preventively treated (day 0) with PC-7 at a dose of 500 μg/kg per day or with vehicle as described in the previous experiments. The draining lymph nodes (DLN, inguinal and axillary) were obtained 7 days after immunization with PLP139-151. To assay proliferation, the DLN cells were restimulated in vitro with the antigen PLP139-151 at different concentrations, with Concanavalin A (2 μg /ml), or with the medium.
(§5) After 48 hours of incubation with 5% Co2 at 37° C., the cultures were loaded for 18 hours with 0.5 μCi 3H-thymidine per well.
To assay cytokine production, DLN cells were restimulated in vitro with the antigen PLP139-151 at different concentrations or with the medium. Data are expressed as mean cpm±SEM, ng/ml±SEM, or pg/ml±SEM.

[4] = test system: relapsing-remitting PLP139-151 induced EAE in SJL mice; test: Relapsing-remitting EAE in SJL mice, therapeutic treatment regimen; assay type: in vivo
Excerpt: as §1, §2
With reference to FIG. 7, the non-peptide prokineticin receptor 1 and 2 antagonist PC-7 was administered intraperitoneally to 8-12 week old female SJL mice in which EAE had been induced by immunization with PLP139-151 (100 μg/mouse) in CFA. The PC-7 was given at a dose of 500 μg/kg (n=10). As a control, an equal amount of saline solution was injected (control) (n=10). The treatments began on the appearance of the first symptoms of the disease (Day 11). Ten mice per group were used. The graph represents the average daily disease score±standard error of the mean (SEM). The results are representative of three consecutive experiments that gave similar results.

[5] = test system: chronic MOG35-55 induced EAE in C57B1/6 mice; test: Chronic EAE in C57B1/6 mice, therapeutic treatment regimen; assay type: in vivo
Excerpt: as §4, §2
With reference to FIG. 10, the non-peptide prokineticin receptor 1 and 2 antagonist PC-7 was administered intraperitoneally to 8-12 week old female C57B1/6 mice in which chronic EAE had been induced by immunization with MOG35-55 (100 μg/mouse) and PTX (400 ng/mouse). The PC-7 was given at a dose of 500 μg /kg (n=10). As a control, an equal amount of saline solution was injected (vehicle) (n=10). The treatments began on the onset of the first symptoms of the disease (day 12). Ten mice per group were used. The graph represents the average daily disease score±standard error of the mean (SEM). The results are representative of two consecutive experiments that gave similar results.

DLN cells [6] = test: T-cell response in draining lymph node cells of mice with chronic EAE, restimulated in vitro with MOG35-55; assay type: cell-based; details: restimulated with MOG35-55, vs vehicle
Method: With reference to FIG. 11, 8-12 week old female C57B1/6 mice in which chronic EAE had been induced by immunization with MOG35-55 were preventively treated (day 0) with PC-7 at a dose of 500 μg/kg per day or with a vehicle as described in the previous experiments. The draining lymph nodes (DLN, inguinal and axillary) were obtained 10 days after immunization with MOG35-55. To assay proliferation, the DLN cells were restimulated in vitro with MOG35-55 at different concentrations, with Concanavalin A (2 μg/ml), or with the medium. Data are expressed as mean cpm±SEM, ng/ml±SEM, or pg/ml±SEM.
as §5
To assay cytokine production, DLN cells were restimulated in vitro with MOG35-55 at different concentrations or with the medium.

[7] = splenocytes, restimulated with PLP139-151, ELISA, vs vehicle
[8] = SJL mice, 500 μg/kg i.p., preventive, Table 1
[9] = C57B1/6 mice, 500 μg/kg i.p., preventive
[10] = DLN cells, relapsing-remitting EAE
[11] = SJL mice, 500 μg/kg i.p. from first symptoms (Day 11), therapeutic
[12] = C57B1/6 mice, 500 μg/kg i.p. from first symptoms (day 12), therapeutic
[13] = SJL mice, 500 μg/kg i.p., preventive, Table 2

CCc1ccc(Cn2c(=O)nc(NCCNC(=N)N)n(Cc3ccc(OC)cc3)c2=O)cc1 [PC1]
peptide-specific T cells proliferation (splenocytes; splenocytes 35 days after immunization, mice treated 500 μg/kg per day preventively, restimulated with PLP139-151, vs vehicle): reduction
production of IFN-gamma (splenocytes; [7]): reduction
production of IL-4 (splenocytes; [7]): increasing
production of TNF (splenocytes; [7]): reduction
Cumulative disease score [1, 8]: 24.8 ± 9.0 *
Onset of disease (Day) [1, 8]: 12.4 ± 1.0 * Day
Peak of disease Severity ([1]; SJL mice, 500 μg/kg i.p., preventive, score scale 0 to 5, Table 1): 1.7 ± 0.4 *
Incidence (%) ([1]; SJL mice, 500 μg/kg intraperitoneally from induction of EAE (preventive), Table 1): 70% (7/10)
severity of the disease (in words) ([1]; relapsing-remitting EAE): reduction in the severity of the disease
onset of the disease (in words) ([1]; relapsing-remitting EAE, treated from the time of induction of EAE): delay in the onset of the disease

COc1ccc(Cn2c(NCCNC(=N)N)nc(=O)n(Cc3ccc(F)cc3)c2=O)cc1 [PC7]
Cumulative disease score [2, 9]: 41.1 ± 11.8
Onset of disease [2, 9]: 16.8 ± 1.7 days
Peak in disease Severity [2, 9]: 2.5 ± 0.5
Incidence (%) ([2]; C57B1/6 mice, MOG35-55 and PTX, 500 μg/kg i.p. from induction of EAE (preventive)): 90% (9/10)
severity of the disease (in words) ([2]; chronic EAE, preventive treatment): significant reduction in the severity of the disease
proliferation of lymph node cells (DLN cells [3]; DLN cells 7 days after immunization, mice treated 500 μg/kg per day preventively): reduced proliferation
levels of IL-17A (DLN cells [3]; [10]): slight reduction
levels of interleukin IL-6 (DLN cells [3]; [10]): increase
levels of interleukin IL-10 (DLN cells [3]; [10]): increase
production of IFN (DLN cells [3]; [10]): significantly lower
production of TNF (DLN cells [3]; [10]): significantly lower
Cumulative disease score [4, 11]: 42.3 ± 7.5
Incidence (%) [4, 11]: 100% (10/10)
Peak in disease Severity [4, 11]: 2.6 ± 0.3
severity of the disease (in words) ([4]; relapsing-remitting EAE, therapeutic treatment, 500 μg/kg): significantly reduces the severity of the disease
Cumulative disease score [5, 12]: 50.9 ± 11.8
Incidence (%) [5, 12]: 100% (10/10)
Peak in disease Severity [5, 12]: 3.3 ± 0.3
severity of the disease (in words) ([5]; chronic EAE, therapeutic treatment, 500 μg/Kg): significant reduction in the severity of the disease
Cumulative disease score [1, 13]: 21.2 ± 5.1 *
Onset of disease (Day) [1, 13]: 11.4 ± 0.1 * Day
Peak in disease Severity [1, 13]: 2.2 ± 0.3 *
Incidence (%) ([1]; SJL mice, 500 μg/kg i.p. from induction of EAE (preventive), Table 2): 90% (9/10)
severity of the disease (in words) ([1]; relapsing-remitting EAE): significantly reduces the severity of the disease
peptide-specific T cells proliferation (DLN cells [6]; DLN cells 10 days after immunization, mice treated 500 μg/kg per day preventively): reduction
production of IFN-gamma (DLN cells [6]; DLN cells, chronic EAE): reduction
production of IL-10 (DLN cells [6]; DLN cells, chronic EAE): increasing
production of IL-17 (DLN cells [6]; DLN cells, chronic EAE): reduction
production of TNF (DLN cells [6]; DLN cells, chronic EAE): reduction
